The numbers were not newly measured in patent US8623418B2, “Pharmaceutical composition” (Alpharma Pharmaceuticals LLC, priority 2007, dated 2014), which cites them from elsewhere.

Molecules are shown by their SMILES.

The conditions of this data set: in vivo.

For `O=C1CC[C@@]2(O)[C@H]3Cc4ccc(O)c5c4[C@@]2(CCN3CC2CC2)[C@H]1O5` [naltrexone], the “parent drug and metabolites excreted by the kidney” value is 53-79 % of the dose.
